Measurements from patent publication US7241812B2, “Methods and compositions for modulating sphingosine-1-phosphate (S1P) receptor activity” (Praecis Pharmaceuticals, Inc., priority 2004, dated 2007).

How the values were obtained:
S1P3 receptor = target: T1, S1P3 receptor (Homo sapiens, UniProt Q99500); assay: Binding to S1P3 receptor, [33P]sphingosine 1-phosphate displacement on membranes of transfected HEK 293 T cells; conditions: 2.5 pM [33P]sphingosine 1-phosphate, 60 minutes at room temperature
T1 construct: expressed in transfected cells; host or cells: HEK 293 T cells (crude membrane preparation)
T1 sequence (Q99500 whole entry): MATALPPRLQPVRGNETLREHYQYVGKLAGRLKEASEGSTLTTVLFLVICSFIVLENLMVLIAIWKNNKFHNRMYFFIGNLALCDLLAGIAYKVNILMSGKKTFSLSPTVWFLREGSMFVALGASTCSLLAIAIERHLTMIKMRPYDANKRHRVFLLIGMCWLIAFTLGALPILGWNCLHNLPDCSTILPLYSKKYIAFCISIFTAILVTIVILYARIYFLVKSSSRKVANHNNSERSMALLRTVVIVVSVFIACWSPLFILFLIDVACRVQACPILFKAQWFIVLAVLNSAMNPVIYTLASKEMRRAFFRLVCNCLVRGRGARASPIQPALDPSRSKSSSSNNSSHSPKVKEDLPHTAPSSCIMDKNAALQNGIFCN
Procedure: (§1) The ability of several of the compounds described herein to bind to the S1P1 or S1P3 receptor was also tested as follows.
(§2) For the membrane preparation, plasmid DNA was transfected into HEK 293 T cells using the FuGENE 6 transfection protocol (publicly available by Roche). Briefly, subconfluent monolayers of HEK 293 T cells were transfected with the DNA mixture containing FuGENE 6 (using a 1:3 ratio). The dishes containing the cells were then placed in a tissue culture incubator (5% CO2, 37° C.). The cells were harvested 48 hours after addition of the DNA by scraping in HME buffer (in mM: 20 HEPES, 5 MgCl2, 1 EDTA, pH 7.4, 1 mM PMSF) containing 10% sucrose on ice, and disrupted using a Dounce homogenizer. After centrifugation at 800×g, the supernatant was diluted with HME without sucrose and centrifuged at 17,000×g for 1 hour. This crude membrane pellet was resuspended in HME with sucrose, aliquoted, and snap-frozen by immersion in liquid nitrogen. The membranes were stored at −70 C. Protein concentration was determined spectroscopically by Bradford protein assay.
(§3) For the binding assay, [^33P]sphingosine 1-phosphate (obtained from American Radiolabeled Chemicals, Inc) was added to membranes in 200 μl in 96-well plates with assay concentrations of 2.5 pM [^33P]sphingosine 1-phosphate, 4 mg/ml BSA, 50 mM HEPES, pH 7.5, 100 mM NaCl, 5 mM MgCl2, and 5 μg of protein. Binding was performed for 60 minutes at room temperature with gentle mixing and terminated by collecting the membranes onto GF/B filter plates. After drying the filter plates for 10 minutes, 50 μl of Microscint 40 was added to each well, and filter-bound radionuclide was measured on a Packard Top Count. Nonspecific binding was defined as the amount of radioactivity remaining in the presence of excess of unlabeled S1P.

S1P1 receptor = target: T2, S1P1 receptor (Homo sapiens, UniProt P21453); assay: Binding to S1P1 receptor, [33P]sphingosine 1-phosphate displacement on membranes of transfected HEK 293 T cells; conditions: 2.5 pM [33P]sphingosine 1-phosphate, 60 minutes at room temperature
T2 construct: expressed in transfected cells; host or cells: HEK 293 T cells (crude membrane preparation)
T2 sequence (P21453 whole entry): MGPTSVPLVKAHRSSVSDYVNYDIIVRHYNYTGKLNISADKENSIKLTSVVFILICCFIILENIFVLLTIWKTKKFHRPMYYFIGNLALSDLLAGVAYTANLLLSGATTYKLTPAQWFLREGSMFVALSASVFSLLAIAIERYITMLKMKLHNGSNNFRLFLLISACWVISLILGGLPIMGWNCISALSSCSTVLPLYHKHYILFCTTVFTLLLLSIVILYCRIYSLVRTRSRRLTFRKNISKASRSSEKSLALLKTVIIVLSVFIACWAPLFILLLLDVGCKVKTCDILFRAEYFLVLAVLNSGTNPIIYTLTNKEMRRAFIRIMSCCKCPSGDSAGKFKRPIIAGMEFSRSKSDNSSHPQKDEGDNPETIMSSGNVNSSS
Procedure: as §1, §2, §3

**Q.** What does the source list for C[C@](N)(COc1ccccc1)C(=O)Nc1ccc(Oc2ccccc2)cc1 [compound 130]?
**A.** IC50 (S1P3 receptor): > 10000 nM; IC50 (S1P1 receptor): 90 nM

**Q.** For CCCOc1cccc(-c2ccc(NC(=O)[C@@](C)(N)CO)cc2)c1 [compound 144], which IC50 (S1P3 receptor) is on record?
**A.** The IC50 was > 10000 nM.

**Q.** And the IC50 (S1P1 receptor)?
**A.** The IC50 was 2400 nM.

**Q.** For Cc1ccccc1-c1ccc(CCOc2ccc(NC(=O)[C@@](C)(N)CO)cc2)cc1 [compound 152], which IC50 (S1P3 receptor) is on record?
**A.** The IC50 was > 10000 nM.

**Q.** What about the IC50 (S1P1 receptor) of the same molecule?
**A.** Its IC50 is > 10000 nM.

**Q.** C[C@](N)(CO)C(=O)Nc1ccc(OCCc2ccc(-c3ccoc3)cc2)cc1 [compound 157] was tested. Which IC50 (S1P1 receptor) did it give?
**A.** Its IC50 is 1.3 nM.

**Q.** CCc1ccc(-c2ccc(CCOc3ccc(NC(=O)[C@@](C)(N)CO)cc3)cc2)cc1 [compound 46] was tested. Which IC50 (S1P3 receptor) did it give?
**A.** Its IC50 is 5000 nM.

**Q.** And the IC50 (S1P1 receptor)?
**A.** The IC50 was 250 nM.

**Q.** Which IC50 (S1P3 receptor) does the source give for CCc1ccc(Oc2ccc(NC(=O)[C@@](C)(N)CO)cc2)cc1 [compound 134] here?
**A.** The IC50 was 1200 nM.

**Q.** What about the IC50 (S1P1 receptor) of the same molecule?
**A.** The IC50 was 114 nM.

**Q.** What does the source list for C[C@](N)(CO)C(=O)Nc1ccc(Oc2ccc(F)cc2)cc1 [compound 139]?
**A.** IC50 (S1P3 receptor): 220 nM; IC50 (S1P1 receptor): 2.5 nM

**Q.** With COc1cccc(-c2ccc(NC(=O)[C@@](C)(N)CO)cc2)c1 [compound 142] as the molecule, how does the IC50 (S1P3 receptor) read?
**A.** The IC50 was 315 nM.

**Q.** What about the IC50 (S1P1 receptor) of the same molecule?
**A.** Its IC50 is 8 nM.

**Q.** CCOc1ccc(-c2ccc(CCOc3ccc(NC(=O)[C@@](C)(N)CO)cc3)cc2)cc1 [compound 47] was tested. Which IC50 (S1P3 receptor) did it give?
**A.** Its IC50 is 5000 nM.

**Q.** What about the IC50 (S1P1 receptor) of the same molecule?
**A.** Its IC50 is 23 nM.

**Q.** What does the source list for C[C@](N)(CO)C(=O)Nc1ccc(OCCc2ccc(-c3ccc(Cl)cc3)cc2)cc1 [compound 49]?
**A.** IC50 (S1P3 receptor): 8000 nM; IC50 (S1P1 receptor): 240 nM

**Q.** How did the IC50 (S1P3 receptor) turn out when CCc1ccc(OC[C@](C)(N)C(=O)Nc2ccc(Oc3ccc(CC)cc3)cc2)cc1 [compound 131] was run?
**A.** Its IC50 is 833 nM.

**Q.** And the IC50 (S1P1 receptor)?
**A.** Its IC50 is 218 nM.

**Q.** Which IC50 (S1P1 receptor) does the source give for CCCCCCNC(=O)c1ccc(NC(=O)[C@@H](N)[C@@H](C)O)cc1 [compound 125] here?
**A.** The IC50 was 2000 nM.

**Q.** CCCCc1ccc(OC[C@](C)(N)C(=O)Nc2ccc(Oc3ccc(CCCC)cc3)cc2)cc1 [compound 132] was tested. Which IC50 (S1P3 receptor) did it give?
**A.** The IC50 was 3500 nM.

**Q.** What about the IC50 (S1P1 receptor) of the same molecule?
**A.** The IC50 was 167 nM.

**Q.** Which results are given for CCCCOc1ccc(Oc2ccc(NC(=O)[C@@](C)(N)CO)cc2)cc1 [compound 135]?
**A.** IC50 (S1P3 receptor): 2500 nM; IC50 (S1P1 receptor): 22.1 nM

**Q.** Which IC50 (S1P3 receptor) does the source give for C[C@](N)(CO)C(=O)Nc1ccc(OCc2ccc(-c3ccccc3)cc2)cc1 [compound 153] here?
**A.** Its IC50 is 285 nM.

**Q.** What about the IC50 (S1P1 receptor) of the same molecule?
**A.** Its IC50 is 0.8 nM.

**Q.** COc1ccc(CCCCOc2ccc(NC(=O)[C@@](C)(N)COP(=O)(O)O)cc2)cc1 [compound 110] was tested. Which IC50 (S1P3 receptor) did it give?
**A.** Its IC50 is 2150 nM.

**Q.** And the IC50 (S1P1 receptor)?
**A.** The IC50 was 23 nM.

**Q.** What does the source list for COc1ccc(CCOc2ccc(NC(=O)[C@@](C)(N)CO)cc2)cc1OC [compound 34]?
**A.** IC50 (S1P3 receptor): > 10000 nM; IC50 (S1P1 receptor): 1000 nM

**Q.** For Cc1cc(NC(=O)[C@@](C)(N)CO)ccc1Oc1ccccc1 [compound 124], which IC50 (S1P3 receptor) is on record?
**A.** Its IC50 is 164 nM.

**Q.** And the IC50 (S1P1 receptor)?
**A.** Its IC50 is 15 nM.

**Q.** CC(C)Oc1cccc(-c2ccc(NC(=O)[C@@](C)(N)CO)cc2)c1 [compound 145] was tested. Which IC50 (S1P3 receptor) did it give?
**A.** The IC50 was 2000 nM.

**Q.** What about the IC50 (S1P1 receptor) of the same molecule?
**A.** The IC50 was 3.4 nM.

**Q.** How did the IC50 (S1P3 receptor) turn out when C[C@](N)(CO)C(=O)Nc1ccc(OCCc2ccc(-c3cccs3)cc2)cc1 [compound 158] was run?
**A.** Its IC50 is > 1000 nM.

**Q.** And the IC50 (S1P1 receptor)?
**A.** Its IC50 is 150 nM.

**Q.** For CCCCCNC(=O)c1ccc(NC(=O)[C@@H](N)[C@@H](C)O)cc1 [compound 128], which IC50 (S1P3 receptor) is on record?
**A.** The IC50 was 160 nM.

**Q.** And the IC50 (S1P1 receptor)?
**A.** The IC50 was 0.84 nM.

**Q.** Which results are given for CCCCCCCN(C)C(=O)c1ccc(NC(=O)[C@@H](N)[C@@H](C)O)cc1 [compound 126]?
**A.** IC50 (S1P3 receptor): > 10000 nM; IC50 (S1P1 receptor): > 10000 nM

**Q.** Which IC50 (S1P3 receptor) does the source give for C[C@](N)(CO)C(=O)Nc1ccc(OCCc2ccc(-c3ccncc3)cc2)cc1 [compound 156] here?
**A.** The IC50 was 3250 nM.

**Q.** And the IC50 (S1P1 receptor)?
**A.** The IC50 was 6 nM.

**Q.** With C[C@](N)(CO)C(=O)Nc1ccc(-c2csc(-c3ccc(-c4ccccc4)cc3)n2)cc1 [compound 154] as the molecule, how does the IC50 (S1P3 receptor) read?
**A.** Its IC50 is > 10000 nM.

**Q.** What about the IC50 (S1P1 receptor) of the same molecule?
**A.** The IC50 was 21 nM.

**Q.** For CCCCCCCCc1ccc(CCC2(N)COP(=O)(O)OC2)cc1 (centres unmarked) [compound 45], which IC50 (S1P3 receptor) is on record?
**A.** The IC50 was 343 nM.

**Q.** What about the IC50 (S1P1 receptor) of the same molecule?
**A.** The IC50 was 2.4 nM.

**Q.** With C[C@](N)(CO)C(=O)Nc1ccc(Oc2ccccc2)cc1 [compound 129] as the molecule, how does the IC50 (S1P3 receptor) read?
**A.** Its IC50 is 6330 nM.

**Q.** And the IC50 (S1P1 receptor)?
**A.** The IC50 was 17.9 nM.

**Q.** Which IC50 (S1P3 receptor) does the source give for CC(N)(CO)C(=O)Nc1ccc(OCCCCc2ccc(C(F)(F)F)cc2)cc1 (centres unmarked) [compound 141] here?
**A.** The IC50 was 1040 nM.

**Q.** And the IC50 (S1P1 receptor)?
**A.** Its IC50 is 12 nM.

**Q.** How did the IC50 (S1P3 receptor) turn out when C[C@](N)(COP(=O)(O)O)C(=O)Nc1ccc(-c2cnn(Cc3ccccc3)c2)cc1 [compound 105] was run?
**A.** The IC50 was > 10000 nM.

**Q.** And the IC50 (S1P1 receptor)?
**A.** Its IC50 is 2000 nM.

**Q.** Which results are given for CCCCc1ccc(Oc2ccc(NC(=O)[C@@](C)(N)CO)cc2)cc1 [compound 133]?
**A.** IC50 (S1P3 receptor): > 10000 nM; IC50 (S1P1 receptor): 650 nM

**Q.** With C[C@](N)(CO)c1ncc(-c2ccc(OCCc3ccc(-c4ccccc4)cc3)cc2)[nH]1 [compound 148] as the molecule, how does the IC50 (S1P3 receptor) read?
**A.** The IC50 was > 10000 nM.

**Q.** And the IC50 (S1P1 receptor)?
**A.** Its IC50 is > 10000 nM.

**Q.** What does the source list for CCCCCCCCc1ccc(OC2CN[C@H](CO)C2)cc1 (some centres unmarked) [compound 137]?
**A.** IC50 (S1P3 receptor): > 10000 nM; IC50 (S1P1 receptor): 4000 nM

**Q.** CC(COc1ccc(NC(=O)[C@@](C)(N)CO)cc1)c1ccc(-c2ccccc2)c(F)c1 (some centres unmarked) [compound 160] was tested. Which IC50 (S1P3 receptor) did it give?
**A.** The IC50 was > 1000 nM.

**Q.** What about the IC50 (S1P1 receptor) of the same molecule?
**A.** Its IC50 is 500 nM.

**Q.** Which results are given for C[C@](N)(CO)C(=O)Nc1ccc(Oc2ccc(Cl)cc2)cc1 [compound 138]?
**A.** IC50 (S1P3 receptor): > 10000 nM; IC50 (S1P1 receptor): 3800 nM

**Q.** Which IC50 (S1P3 receptor) does the source give for CC(C)c1ccc(-c2ccc(CCOc3ccc(NC(=O)[C@@](C)(N)CO)cc3)cc2)cc1 [compound 150] here?
**A.** Its IC50 is 5030 nM.

**Q.** And the IC50 (S1P1 receptor)?
**A.** The IC50 was 0.55 nM.

**Q.** Which results are given for CCCCCCCc1ccc(C(=O)N[C@@H](C)CO)cc1 [compound 127]?
**A.** IC50 (S1P3 receptor): 59 nM; IC50 (S1P1 receptor): 56 nM

**Q.** With COc1cccc(Oc2ccc(NC(=O)[C@@](C)(N)CO)cc2)c1 [compound 59] as the molecule, how does the IC50 (S1P3 receptor) read?
**A.** The IC50 was 50 nM.

**Q.** What about the IC50 (S1P1 receptor) of the same molecule?
**A.** Its IC50 is 3.5 nM.

**Q.** How did the IC50 (S1P3 receptor) turn out when C[C@](N)(CO)C(=O)Nc1ccc(OCCc2cccc(-c3ccccc3)c2)cc1 [compound 155] was run?
**A.** The IC50 was > 10000 nM.

**Q.** And the IC50 (S1P1 receptor)?
**A.** Its IC50 is > 10000 nM.

**Q.** Which results are given for C[C@](N)(CO)C(=O)Nc1ccc(-c2cccc(OCc3ccccc3)c2)cc1 [compound 147]?
**A.** IC50 (S1P3 receptor): 130 nM; IC50 (S1P1 receptor): 166 nM
